ChEMBL document CHEMBL5247607, “Design, synthesis and biological evaluation of a new series of arylidene indanones as small molecules for targeted therapy of non-small cell lung carcinoma and prostate cancer” (Eur J Med Chem, 2022)
Active and inactive are the calls of the source. No cut-off for these calls is given here.

How the values were obtained:
[1] = target: Cathepsin D (Homo sapiens) (UniProt P07339); assay: Inhibition of cathepsin D (unknown origin) at 100 uM relative to control
[2] = Cytotoxicity against human CCD 19Lu cells assessed as inhibition of cell growth incubated for 24 hrs by MTT assay; format: toxicity, cell-based
[3] = Selectivity index, ratio of IC50 for cytotoxicity against human hTERT-HPNE cells to IC50 for cytotoxicity against human PANC-1 cells; format: toxicity, cell-based; conditions: hTERT-HPNE cells versus PANC-1 cells, read-out: Ratio IC50
PANC-1 [4] = assay: Cytotoxicity against human PANC-1 cells assessed as inhibition of cell growth incubated for 24 hrs by MTT assay; format: functional, cell-based; conditions: PANC-1, 24 h
[5] = Cytotoxicity against human hTERT-HPNE cells assessed as inhibition of cell growth incubated for 24 hrs by MTT assay; format: toxicity, cell-based
A549 [6] = assay: Cytotoxicity against human A549 cells assessed as inhibition of cell growth incubated for 24 hrs by MTT assay; format: functional, cell-based; conditions: A549, 24 h
[7] = target: Procathepsin L (Homo sapiens) (UniProt P07711); assay: Inhibition of cathepsin L (unknown origin) at 100 uM
[8] = Selectivity index, ratio of IC50 for cytotoxicity against human CCD 19Lu cells to IC50 for cytotoxicity against human A549 cells; format: toxicity, cell-based; conditions: CCD 19Lu cells versus A549 cells, read-out: Ratio IC50
A549 [9] = assay: Induction of morphological changes in human A549 cells assessed as chromatin condensation at 5.96 uM incubated for 24 hrs by acridine orange/ethidium bromide staining based fluorescence microscopic analysis; format: functional, cell-based
PANC-1 [10] = assay: Induction of morphological changes in human PANC-1 cells assessed as chromatin condensation at 5.96 uM incubated for 24 hrs by acridine orange/ethidium bromide staining based fluorescence microscopic analysis; format: functional, cell-based
A549 [11] = assay: Induction of apoptosis in human A549 cells assessed as activation of caspase-3 by measuring caspase-3 negative cells at IC50 incubated for 24 hrs by flow cytometry analysis (reference value: 91.1%); format: functional
PANC-1 [12] = assay: Induction of morphological changes in human PANC-1 cells assessed as cell shrinkage at 5.96 uM incubated for 24 hrs by acridine orange/ethidium bromide staining based fluorescence microscopic analysis; format: functional
PANC-1 [13] = assay: Induction of apoptosis in human PANC-1 cells assessed as activation of caspase-3 by measuring caspase-3 negative cells at IC50 incubated for 24 hrs by flow cytometry analysis (reference value: 98.5 %); format: functional
A549 [14] = assay: Induction of morphological changes in human A549 cells assessed as cell shrinkage at 5.96 uM incubated for 24 hrs by acridine orange/ethidium bromide staining based fluorescence microscopic analysis; format: functional
A549 [15] = assay: Induction of apoptosis in human A549 cells assessed as early apoptotic cells at IC50 incubated for 24 hrs by annexin V-FITC/PI staining based flow cytometry analysis (reference value: 5.6%); format: functional
PANC-1 [16] = assay: Induction of mitochondrial membrane potential loss in human PANC-1 cells assessed as depolarized cells at IC50 incubated for 24 hrs by JC-1 staining based flow cytometry assay (reference value: 5%); format: functional
PANC-1 [17] = assay: Induction of apoptosis in human PANC-1 cells assessed as late apoptotic cells at IC50 incubated for 24 hrs by annexin V-FITC/PI staining based flow cytometry analysis (reference value: 0.2%); format: functional
A549 [18] = assay: Induction of mitochondrial membrane potential loss in human A549 cells assessed as depolarized cells at IC50 incubated for 24 hrs by JC-1 staining based flow cytometry assay (reference value: 6.9%); format: functional
A549 [19] = assay: Inhibition of DNA synthesis in human A549 cells at 1.49 uM incubated for 24 hrs by BrdU incorporation assay relative to control; format: functional
A549 [20] = assay: Inhibition of DNA synthesis in human A549 cells at 2.98 uM incubated for 24 hrs by BrdU incorporation assay relative to control; format: functional
A549 [21] = assay: Induction of apoptosis in human A549 cells assessed as increase in intracellular calcium level at 5.96 uM by Fluo-4-AM staining based flow cytometry analysis; format: functional, cell-based
A549 [22] = assay: Induction of apoptosis in human A549 cells assessed as activation of caspase-3 by measuring caspase-3 positive cells at IC50 incubated for 24 hrs by flow cytometry analysis (reference value: 8.4%); format: functional
PANC-1 [23] = assay: Inhibition of DNA synthesis in human PANC-1 cells at 5.96 uM incubated for 24 hrs by BrdU incorporation assay relative to control; format: functional
A549 [24] = assay: Induction of apoptosis in human A549 cells assessed as late apoptotic cells at IC50 incubated for 24 hrs by annexin V-FITC/PI staining based flow cytometry analysis (reference value: 6.5 %); format: functional
A549 [25] = assay: Inhibition of DNA synthesis in human A549 cells at 5.96 uM incubated for 24 hrs by BrdU incorporation assay relative to control; format: functional
PANC-1 [26] = assay: Induction of morphological changes in human PANC-1 cells assessed as formation of apoptotic bodies at 5.96 uM incubated for 24 hrs by acridine orange/ethidium bromide staining based fluorescence microscopic analysis; format: functional, cell-based
A549 [27] = assay: Induction of mitochondrial membrane potential loss in human A549 cells assessed as polarized cells at IC50 incubated for 24 hrs by JC-1 staining based flow cytometry assay (reference value: 90.6%); format: functional
PANC-1 [28] = assay: Induction of apoptosis in human PANC-1 cells assessed as activation of caspase-3 by measuring caspase-3 positive cells at IC50 incubated for 24 hrs by flow cytometry analysis (reference value: 1.8%); format: functional
PANC-1 [29] = assay: Induction of apoptosis in human PANC-1 cells assessed as early apoptotic cells at IC50 incubated for 24 hrs by annexin V-FITC/PI staining based flow cytometry analysis (reference value: 0%); format: functional
A549 [30] = assay: Induction of morphological changes in human A549 cells assessed as formation of apoptotic bodies at 5.96 uM incubated for 24 hrs by acridine orange/ethidium bromide staining based fluorescence microscopic analysis; format: functional, cell-based
PANC-1 [31] = assay: Induction of apoptosis in human PANC-1 cells assessed as total cell viability at IC50 incubated for 24 hrs by annexin V-FITC/PI staining based flow cytometry analysis (reference value: 84.4%); format: functional
PANC-1 [32] = assay: Induction of mitochondrial membrane potential loss in human PANC-1 cells assessed as polarized cells at IC50 incubated for 24 hrs by JC-1 staining based flow cytometry assay (reference value: 92%); format: functional
A549 [33] = assay: Induction of apoptosis in human A549 cells assessed as total cell viability at IC50 incubated for 24 hrs by annexin V-FITC/PI staining based flow cytometry analysis (reference value: 85.6 %); format: functional
[34] = target: Cathepsin D (Homo sapiens) (UniProt P07339); assay: Inhibition of cathepsin D (unknown origin) at 100 uM
[35] = target: Procathepsin L (Homo sapiens) (UniProt P07711); assay: Inhibition of cathepsin L (unknown origin) at 100 uM relative to control
PANC-1 [36] = assay: Induction of morphological changes in human PANC-1 cells assessed as cell shrinkage at 13.58 uM incubated for 24 hrs by acridine orange/ethidium bromide staining based fluorescence microscopic analysis; format: functional
PANC-1 [37] = assay: Induction of morphological changes in human PANC-1 cells assessed as chromatin condensation at 13.58 uM incubated for 24 hrs by acridine orange/ethidium bromide staining based fluorescence microscopic analysis; format: functional, cell-based
PANC-1 [38] = assay: Inhibition of DNA synthesis in human PANC-1 cells at IC50/4 to IC50 concentration incubated for 24 hrs by BrdU incorporation assay; format: functional, cell-based
PANC-1 [39] = assay: Potency index, ratio of cisplatin IC50 for test compound IC50 for cytotoxicity against human PANC-1 cells assessed as inhibition of cell growth incubated for 24 hrs by MTT assay; format: functional
PANC-1 [40] = assay: Induction of morphological changes in human PANC-1 cells assessed as formation of apoptotic bodies at 13.58 uM incubated for 24 hrs by acridine orange/ethidium bromide staining based fluorescence microscopic analysis; format: functional, cell-based

Chain of Cathepsin D (Homo sapiens) (P07339 65-162 limits assumed): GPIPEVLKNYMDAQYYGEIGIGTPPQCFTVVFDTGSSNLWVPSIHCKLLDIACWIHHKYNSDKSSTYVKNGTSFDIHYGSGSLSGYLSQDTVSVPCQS
Chain of Cathepsin D (Homo sapiens) (P07339 169-412 limits assumed): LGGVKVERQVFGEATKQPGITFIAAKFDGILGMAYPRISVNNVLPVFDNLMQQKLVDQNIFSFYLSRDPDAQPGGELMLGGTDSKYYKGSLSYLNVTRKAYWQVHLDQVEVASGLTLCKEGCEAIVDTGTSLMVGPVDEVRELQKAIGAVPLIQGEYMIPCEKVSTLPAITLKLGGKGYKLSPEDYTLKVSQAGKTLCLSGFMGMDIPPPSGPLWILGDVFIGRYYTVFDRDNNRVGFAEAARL
Chain of Procathepsin L (Homo sapiens) (P07711 114-333 limits assumed): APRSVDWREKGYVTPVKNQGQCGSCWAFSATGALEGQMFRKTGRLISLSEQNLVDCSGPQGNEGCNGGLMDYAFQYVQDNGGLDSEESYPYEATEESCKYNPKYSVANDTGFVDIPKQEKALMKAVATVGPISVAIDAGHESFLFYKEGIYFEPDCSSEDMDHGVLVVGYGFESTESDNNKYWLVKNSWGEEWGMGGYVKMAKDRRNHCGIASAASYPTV

O=C1/C(=C/c2ccc(N3CCOCC3)cc2)Cc2cc3c(cc21)OCO3
inhibition [1]: 34.9% | IC50 at 24 h [2]: > 1430 µM | selectivity ratio [3]: 5.52 | IC50 (PANC-1 [4]): 219 µM | IC50 at 24 h [5]: 1210 µM | IC50 (A549 [6]): 55.8 µM | inhibition [7]: inactive | selectivity ratio [8]: > 25.6

CCN(CC)c1ccc(/C=C2\Cc3cc4c(cc3C2=O)OCO4)cc1
Activity (A549 [9]): Active | Activity (PANC-1 [10]): Active | Activity (A549 [11]): 96.1% | Activity (PANC-1 [12]): Active | Activity (PANC-1 [13]): 97.6% | inhibition [1]: 30.4% | Activity (A549 [14]): Active | Activity (A549 [15]): 26.7% | IC50 at 24 h [2]: > 1490 µM | selectivity ratio [3]: > 128 | Activity (PANC-1 [16]): 68.4% | Activity (PANC-1 [17]): 1.5% | Activity (A549 [18]): 66.8% | inhibition at 1.49 µM (A549 [19]): 22.1% | IC50 (PANC-1 [4]): < 11.6 µM | inhibition at 2.98 µM (A549 [20]): 24.2% | Activity (A549 [21]): Active | IC50 at 24 h [5]: > 1490 µM | Activity (A549 [22]): 3.9% | inhibition at 5.96 µM (PANC-1 [23]): 23.6% | Activity (A549 [24]): 27% | IC50 (A549 [6]): < 11.6 µM | inhibition at 5.96 µM (A549 [25]): 39.6% | Activity (PANC-1 [26]): Active | Activity (A549 [27]): 65.1% | Activity (PANC-1 [28]): 3.1% | Activity (PANC-1 [29]): 3.5% | Activity (A549 [30]): Active | Activity (PANC-1 [31]): 90.9% | inhibition [7]: inactive | selectivity ratio [8]: > 128 | Activity (PANC-1 [32]): 29.7% | Activity (A549 [33]): 38.8%

CC(=O)Nc1ccc(/C=C2\Cc3cc4c(cc3C2=O)OCO4)cc1
IC50 at 24 h [2]: > 1560 µM | IC50 (PANC-1 [4]): 160 µM | IC50 at 24 h [5]: 57 µM | IC50 (A549 [6]): 115 µM | inhibition [34]: inactive | inhibition [7]: inactive | selectivity ratio [8]: > 13.5

O=C1/C(=C/c2ccc(-n3ccnc3)cc2)Cc2cc3c(cc21)OCO3
IC50 at 24 h [2]: > 1510 µM | selectivity ratio [3]: 2.16 | IC50 (PANC-1 [4]): 71.1 µM | inhibition [35]: 24.8% | IC50 at 24 h [5]: 153 µM | IC50 (A549 [6]): 132 µM | inhibition [34]: inactive | selectivity ratio [8]: > 11.4

O=C1/C(=C/c2ccc(-n3cncn3)cc2)Cc2cc3c(cc21)OCO3
Activity (PANC-1 [36]): Active | Activity (PANC-1 [13]): 93.5% | Activity (PANC-1 [37]): Active | IC50 at 24 h [2]: > 1510 µM | inhibition (PANC-1 [38]): inactive | selectivity ratio [3]: > 111 | Activity (PANC-1 [16]): 58.6% | Activity (PANC-1 [17]): 0.4% | IC50 (PANC-1 [4]): 13.6 µM | IC50 at 24 h [5]: > 1510 µM | Ratio IC50 (PANC-1 [39]): 3 | IC50 (A549 [6]): 64.9 µM | Activity (PANC-1 [28]): 9.1% | Activity (PANC-1 [29]): 0.1% | Activity (PANC-1 [31]): 94% | inhibition [34]: inactive | inhibition [7]: inactive | selectivity ratio [8]: > 23.3 | Activity (PANC-1 [32]): 29.5% | Activity (PANC-1 [40]): Active

O=C1/C(=C/c2ccc(N3CCCCC3)cc2)Cc2cc3c(cc21)OCO3
inhibition [1]: 39.1% | IC50 at 24 h [2]: < 11.2 µM | selectivity ratio [3]: 3.28 | IC50 (PANC-1 [4]): 360 µM | IC50 at 24 h [5]: 1180 µM | IC50 (A549 [6]): 16.3 µM | inhibition [7]: inactive

CN1CCN(c2ccc(/C=C3\Cc4cc5c(cc4C3=O)OCO5)cc2)CC1
inhibition [1]: 26% | IC50 at 24 h [2]: > 1380 µM | selectivity ratio [3]: > 8.82 | IC50 (PANC-1 [4]): 156 µM | IC50 at 24 h [5]: > 1380 µM | IC50 (A549 [6]): 57.9 µM | inhibition [7]: inactive | selectivity ratio [8]: > 23.8
